Test results reported in ChEMBL document CHEMBL4052680, “Semi-quantitative models for identifying potent and selective transthyretin amyloidogenesis inhibitors” (Bioorg Med Chem Lett, 2017).

Experiments:
[1] = species on record: Rattus norvegicus; test: Displacement of [125I]-triiodothyronine from thyroid hormone receptor in rat liver membrane homogenates incubated for 18 hrs by scintillation counting method; format: cell membranes; design: concentration or dose not given beside the values; conditions: concentration not given here
[2] = species on record: Rattus norvegicus; test: Displacement of [125I]-triiodothyronine from thyroid hormone receptor in rat liver membrane homogenates assessed as relative T3 displacement incubated for 18 hrs by scintillation counting method relative to control; format: cell membranes

Oc1ccc(/C=C/c2cc(Br)c(O)c(Br)c2)cc1
inhibition [1]: 50%
relative binding affinity (RBA) [2]: 0.5

Oc1c(Br)cc(/C=C/c2ccccc2Br)cc1Br
inhibition [1]: 69%
relative binding affinity (RBA) [2]: 0.69

O=C(O)c1ccc(C(=O)Nc2cc(Br)cc(Br)c2)cc1
inhibition [1]: 13%
relative binding affinity (RBA) [2]: 0.13

Oc1ccccc1/C=C/c1cc(Br)c(O)c(Br)c1
inhibition [1]: 22%
relative binding affinity (RBA) [2]: 0.22

Clc1cccc(Cl)c1/C=C/c1cc(Br)cc(Br)c1
inhibition [1]: 13%
relative binding affinity (RBA) [2]: 0.13

Cc1cc(-c2cccc3oc4ccccc4c23)cc(C)c1O
inhibition [1]: 0%
relative binding affinity (RBA) [2]: 0

Nc1cccc(/C=C/c2cc(Br)c(N)c(Br)c2)c1
inhibition [1]: 3%
relative binding affinity (RBA) [2]: 0.03

COc1cccc(/C=C/c2cc(Br)c(N)c(Br)c2)c1
inhibition [1]: 1%
relative binding affinity (RBA) [2]: 0.01

Cc1cccc(CCc2cc(Br)c(O)c(Br)c2)c1
inhibition [1]: 4%
relative binding affinity (RBA) [2]: 0.04

Cc1cc(/C=C/c2c(Cl)cccc2Cl)cc(C)c1O
inhibition [1]: 41%
relative binding affinity (RBA) [2]: 0.41

Nc1ccc(/C=C/c2cc(Br)c(O)c(Br)c2)cc1
inhibition [1]: 0%
relative binding affinity (RBA) [2]: 0

Cc1cc(CCc2c(Cl)cccc2Cl)cc(C)c1O
inhibition [1]: 40%
relative binding affinity (RBA) [2]: 0.4

Cc1cc(C)cc(-c2cccc3oc4ccccc4c23)c1
inhibition [1]: 2%
relative binding affinity (RBA) [2]: 0.02

Cc1cc(C)cc(Nc2cccc3oc4ccccc4c23)c1
inhibition [1]: 0%
relative binding affinity (RBA) [2]: 0

COc1cccc(CCc2cc(Br)c(O)c(Br)c2)c1
inhibition [1]: 5%
relative binding affinity (RBA) [2]: 0.05

COc1ccc(/C=C/c2cc(Br)c(O)c(Br)c2)cc1
inhibition [1]: 16%
relative binding affinity (RBA) [2]: 0.16

Oc1c(Br)cc(/C=C/c2c(Br)cccc2Br)cc1Br
inhibition [1]: 35%
relative binding affinity (RBA) [2]: 0.35

Oc1c(Br)cc(Oc2cccc3oc4ccccc4c23)cc1Br
inhibition [1]: 94%
relative binding affinity (RBA) [2]: 0.94

Cc1cc(-c2cc(C)c(O)c(C)c2)cc(C)c1O
inhibition [1]: 11%
relative binding affinity (RBA) [2]: 0.11

COc1ccccc1/C=C/c1cc(Br)c(O)c(Br)c1
inhibition [1]: 32%
relative binding affinity (RBA) [2]: 0.32

Nc1cccc(/C=C/c2cc(Br)c(O)c(Br)c2)c1
inhibition [1]: 0%
relative binding affinity (RBA) [2]: 0

Oc1c(Br)cc(NCc2ccccc2)cc1Br
inhibition [1]: 2%
relative binding affinity (RBA) [2]: 0.02

Oc1c(I)cc(/C=C/c2c(Cl)cccc2Cl)cc1I
inhibition [1]: 92%
relative binding affinity (RBA) [2]: 0.92

Cc1cc(C)cc(/C=C/c2cc(Br)c(O)c(Br)c2)c1
inhibition [1]: 20%
relative binding affinity (RBA) [2]: 0.2

Nc1ccc(/C=C/c2cc(Br)c(N)c(Br)c2)cc1
inhibition [1]: 0%
relative binding affinity (RBA) [2]: 0

Brc1cc(Br)cc(-c2cccc3oc4ccccc4c23)c1
inhibition [1]: 0%
relative binding affinity (RBA) [2]: 0

Nc1ccc(CCc2cc(Br)c(O)c(Br)c2)cc1
inhibition [1]: 0%
relative binding affinity (RBA) [2]: 0

Nc1ccccc1/C=C/c1cc(Br)c(O)c(Br)c1
inhibition [1]: 15%
relative binding affinity (RBA) [2]: 0.15

Cc1cc(C)cc(Oc2cccc3oc4ccccc4c23)c1
inhibition [1]: 0%
relative binding affinity (RBA) [2]: 0

Oc1c(I)cc(-c2nc3cccc(Cl)c3o2)cc1I
inhibition [1]: 92%
relative binding affinity (RBA) [2]: 0.92

COc1cccc(OC)c1/C=C/c1cc(Br)c(N)c(Br)c1
inhibition [1]: 2%
relative binding affinity (RBA) [2]: 0.02

Oc1c(Br)cc(/C=C/c2ccccc2I)cc1Br
inhibition [1]: 55%
relative binding affinity (RBA) [2]: 0.55

Oc1c(Br)cc(CCc2ccccc2C(F)(F)F)cc1Br
inhibition [1]: 8%
relative binding affinity (RBA) [2]: 0.08

O=[N+]([O-])c1ccccc1CCc1cc(Br)c(O)c(Br)c1
inhibition [1]: 3%
relative binding affinity (RBA) [2]: 0.03

O=[N+]([O-])c1ccccc1/C=C/c1cc(Br)c(O)c(Br)c1
inhibition [1]: 21%
relative binding affinity (RBA) [2]: 0.21

COc1cccc(/C=C/c2cc(Br)c(O)c(Br)c2)c1
inhibition [1]: 0%
relative binding affinity (RBA) [2]: 0

COc1ccccc1C(=O)Nc1cc(Br)cc(Br)c1
inhibition [1]: 10%
relative binding affinity (RBA) [2]: 0.1

Brc1cc(Br)cc(Oc2cccc3oc4ccccc4c23)c1
inhibition [1]: 0%
relative binding affinity (RBA) [2]: 0

O=[N+]([O-])c1ccccc1COc1cc(Br)cc(Br)c1
inhibition [1]: 0%
relative binding affinity (RBA) [2]: 0

O=[N+]([O-])c1ccccc1S(=O)(=O)Nc1cc(Cl)c(O)c(Cl)c1
inhibition [1]: 7%
relative binding affinity (RBA) [2]: 0.07

Oc1c(Br)cc(CCc2c(F)cccc2F)cc1Br
inhibition [1]: 61%
relative binding affinity (RBA) [2]: 0.61

Oc1cc(O)cc(/C=C/c2cc(Br)c(O)c(Br)c2)c1
inhibition [1]: 66%
relative binding affinity (RBA) [2]: 0.66

Oc1c(Br)cc(/C=C/c2ccc(F)cc2)cc1Br
inhibition [1]: 40%
relative binding affinity (RBA) [2]: 0.4

Oc1cccc(/C=C/c2cc(Br)c(O)c(Br)c2)c1
inhibition [1]: 64%
relative binding affinity (RBA) [2]: 0.64

COc1ccccc1NC(=O)Nc1cc(Br)c(O)c(Br)c1
inhibition [1]: 14%
relative binding affinity (RBA) [2]: 0.14

Oc1c(Br)cc(/C=C/c2c(Cl)cccc2Cl)cc1Br
inhibition [1]: 70%
relative binding affinity (RBA) [2]: 0.7

Clc1cccc(Cl)c1COc1cc(Br)cc(Br)c1
inhibition [1]: 4%
relative binding affinity (RBA) [2]: 0.04

Cc1ccccc1/C=C/c1cc(Br)c(O)c(Br)c1
inhibition [1]: 44%
relative binding affinity (RBA) [2]: 0.44

Cc1cccc(C)c1CCc1cc(Br)c(O)c(Br)c1
inhibition [1]: 12%
relative binding affinity (RBA) [2]: 0.12

Oc1c(Br)cc(CCc2cccc(F)c2)cc1Br
inhibition [1]: 19%
relative binding affinity (RBA) [2]: 0.19

COc1cccc(OC)c1CCc1cc(Br)c(O)c(Br)c1
inhibition [1]: 0%
relative binding affinity (RBA) [2]: 0

Oc1c(Br)cc(-c2nc3cccc(Cl)c3o2)cc1Br
inhibition [1]: 62%
relative binding affinity (RBA) [2]: 0.62

Cc1cc(Oc2cccc3oc4ccccc4c23)cc(C)c1O
inhibition [1]: 0%
relative binding affinity (RBA) [2]: 0

O=C(O)c1ccc2nc(-c3cc(Cl)cc(Cl)c3)oc2c1
inhibition [1]: 0%
relative binding affinity (RBA) [2]: 0

Cc1cc(-c2nc3c([N+](=O)[O-])cccc3o2)cc(C)c1O
inhibition [1]: 16%
relative binding affinity (RBA) [2]: 0.16

Cc1cccc(/C=C/c2cc(Br)c(O)c(Br)c2)c1
inhibition [1]: 35%
relative binding affinity (RBA) [2]: 0.35

Oc1c(Br)cc(-c2cccc3oc4ccccc4c23)cc1Br
inhibition [1]: 36%
relative binding affinity (RBA) [2]: 0.36

COc1cccc(OC)c1/C=C/c1cc(Br)c(O)c(Br)c1
inhibition [1]: 0%
relative binding affinity (RBA) [2]: 0

Oc1c(Br)cc(/C=C/c2ccccc2C(F)(F)F)cc1Br
inhibition [1]: 69%
relative binding affinity (RBA) [2]: 0.69

Oc1c(Br)cc(CCc2c(Cl)cccc2Cl)cc1Br
inhibition [1]: 45%
relative binding affinity (RBA) [2]: 0.45

Oc1c(Br)cc(/C=C/c2cccc(I)c2)cc1Br
inhibition [1]: 45%
relative binding affinity (RBA) [2]: 0.45

COc1ccccc1CCc1cc(Br)c(O)c(Br)c1
inhibition [1]: 0%
relative binding affinity (RBA) [2]: 0

Cc1cccc(C)c1/C=C/c1cc(Br)c(O)c(Br)c1
inhibition [1]: 42%
relative binding affinity (RBA) [2]: 0.42

Nc1cccc(CCc2cc(Br)c(O)c(Br)c2)c1
inhibition [1]: 0%
relative binding affinity (RBA) [2]: 0
